{"source": "patent US20250275948A1", "about": "“(N-[4-(2,3-DIHYDRO-1H-INDEN-5-YL)-1,3-THIAZOL-2-YL]-2-[4-METHYL-4-(NAPHTHALEN-2-YL)-2,5-DIOXOIMIDAZOLIDIN-1-YL]ACETAMIDE AS STABILIZER OF CLOCK:BMAL1 INTERACTION FOR THE TREATMENT OF CIRCADIAN RHYTHM DISEASES AND DISORDERS” (KOC UNIVERSITESI, priority 2022, published 2025)", "key": {"[1]": {"system": "CLOCK and BMAL1", "experiment": "Subcellular fractionation of U2OS Bmal1-dLuc cells", "type": "cell-based, human", "settings": "unsynchronized U2OS Bmal1-dLuc cells, 5 μM, 24 hours", "description": "Subcellular fractionation was performed to explore if CLK95 effects the subcellular localization of core-clock proteins. U2OS Bmal1-dLuc cells were plated with a density of 40×10^4 cell/well in 6 well plate, a day prior to small molecule treatment. Following, cells were treated with either DMSO (0.25%) or 5 μM CLK95. 24 hours after small molecule treatment, cells were harvested to get fractionated. Cells were harvested with 1 mL ice cold-1×PBS, and pelleted at 5000×g for 7 minutes at 4° C. After discarding supernatants, cells were resuspended with 200 μL Cytosolic Lysis Buffer (CLB) (10 mM HEPES pH 7.9, 10 mM KCl, 0.1 mM EDTA pH 8.0, 0.05% NP-40, 1×PIC) and incubated on ice for 10 minutes. Then, samples were centrifuged at 660×g for 5 minutes (4° C.). While supernatants were transferred to new centrifuge tubes as cytosolic fractions, pellets were washed with 200 μL CLB buffer for 3 times. At the end of each wash, samples were centrifugated at 660×g for 5 minutes at 4° C. Next, cell pellets were resuspended in 100 μL Nuclear Lysis Buffer (NLB) (20 mM HEPES pH 7.9, 0.4M NaCl, 1 mM EDTA, 10% Glycerol, 1×PIC) and subjected to sonication (60% power, 10 seconds, 3 cycles) (BANDELIN SONOPULS HD 2070 homogeniser) for 2 times. This step was followed by centrifugation at 15000×g for 5 minutes with the cytosolic fractions. […]"}, "[2]": {"system": "WT, Clock knockout and Bmal1 knockout MEF cells", "experiment": "Circadian rhythm monitoring in WT, Clock KO and Bmal1 KO MEF cells transduced with Bmal1-dLuc", "type": "cell-based, mouse", "settings": "WT vs Clock KO vs Bmal1 KO MEF cells", "description": "Wild type (WT), Clock knockout (KO), and Bmal1 KO mouse embryonic fibroblast (MEF) cells were transduced with Bmal1-dLuc lentiviral particles to enable us to monitor the effect of CLK95 on circadian oscillation. To this end, virus particles were produced as follow: HEK 293T cells were transfected with 10 μg pLV6-Bmal1-dluc, 9 μg pCMV-ΔR8.2dvpr packaging and lug pCMV-VSVG envelope vectors at ˜70-80% confluency. The plasmid cocktail was mixed with 20 μL PEI in 400 μL DMEM and incubated at room temperature for 10 minutes and cells were transfected. After 16 hours of incubation at 37° C. under 5% CO2, 3 mL fresh D10 medium were added to plates. 48 hours after transfection, cell medium was replaced with 8 mL fresh D10 medium. Lentiviral particles were harvested at 72 and 96 hours post transfection. Collected particles were filtered through 0.45 μM syringe filter and aliquoted (750 μL) for storage at −80° C. for further use.\nWT, Clock KO, and Bmal1 KO MEF cells were transduced with Bmal1-dluc lentiviral particles as follow: Cells were seeded in 35 mm cell culture plates at the density of 1×10^5 cell/plate. […] 72-hours post-transduction cells were synchronized with Dexamethasone (0.1 μM) and prepared for luminescence recording of the circadian oscillation as indicated at section 3.4"}}}
{"smiles": "CC1(c2ccc3ccccc3c2)NC(=O)N(CC(=O)Nc2nc(-c3ccc4c(c3)CCC4)cs2)C1=O", "note": "(centres unmarked) [CLK95]", "values": [{"measurement": "nuclear localization of CLOCK and BMAL1", "setting": "[1]", "value": "increasing the nuclear localization of CLOCK and BMAL1"}, {"measurement": "dependence of circadian phenotype on CLOCK and BMAL1", "setting": "[2]", "value": "effecting the circadian phenotype through CLOCK and BMAL1"}]}
